Source: patent US20140350273A1, “PEDIATRIC USES OF CABAZITAXEL” (AVENTIS PHARMA S.A., priority 2012, published 2014)
Read-outs that look alike come from different tables or passages of the source. Marks after values point to notes of the source that are not given here.

System: human osteosarcoma DM113
Assay type: in vivo
Protocol: The resultant solution contains 10 mg/mL of cabazitaxel. Stock solution of cabazitaxel was then diluted in 0.9% sodium chloride.
This efficacy may be quantified, for example, as changes in tumor volume for each treated (T) and control (C) group, which are calculated for each animal and each day by subtracting the tumor volume on the day of first treatment (staging day) from the tumor volume on the specified observation day. This allows calculating the tumor growth inhibition: ΔT/ΔC=(median delta T/median delta C)×100. Individual tumor volume changes from baseline are thereafter analyzed by a non-parametric two-way ANOVA-TYPE (with factors: group and repeated days) followed by a post-hoc contrasts analysis, with Bonferroni-Holm adjustment for multiplicity, comparing all treated groups to the control group. […] A probability less than 5% (p<0.05) was considered as significant.
Based on the National Cancer Institute (NCl) standards, a ΔT/ΔC≦40% is the minimal level required to declare activity.
This efficacy may also be quantified by the number of tumor regressions observed after therapy. Individual mice reporting a tumor volume ≦50% of the Day 0 measurement for two consecutive measurements over a seven day period were considered partial responders (PR). Individual mice lacking palpable tumors (<4×4 mm^2 for two consecutive measurements over a seven day period) were classified as complete responders (CR); a CR that persisted until study completion was considered a tumor-free survivor (TFS).
Efficacy could also be determined at study completion, using tumor growth delay (T-C) in days, which is calculated using the median time to endpoint (MTTE) value for each treatment (T) group versus control (C). A Log Rank multiple comparison test with Bonferroni-Holm adjustment for multiplicity was applied on individual TTE to compare the treated groups to the control group.
The animals subjected to the experiment are subcutaneously grafted unilaterally with approximately 30 mg of a tumor fragment from low passage pediatric patient-derived tumor xenografts. The animals are implanted with a human patient-derived pediatric tumor xenografted in immuno-compromised mice (Harlan; nu/nu). Several days post tumor implantation, mice are randomized according to their tumor burden to the different groups of treatments and controls. The agents are dosed intravenously at 5.8, 9.3, 15 or 24.2 mg/kg every 4 days for a total of 3 doses (q4d×3) to mice bearing a tumor burden at start of therapy (day 0) ranged from 125 to 250 mm^3.
Beginning Day 0, animals were observed daily and weighed twice weekly using a digital scale; data including individual and mean gram weights (Mean We±SD), mean percent weight change versus Day 0 were recorded for each group. Animal deaths were recorded daily and designated as drug-related (D), technical (T), tumor related (B), or unknown (U) based on weight loss and gross observation; single agent or combination groups reporting a mean >20% for a period of 7 days and/or >10% mortality were considered above the maximum tolerated dose (MTD) for that treatment on the evaluated regimen.
The selected tumor model, DM113, was a low passage patient-derived tumor xenograft derived from an osteosarcoma taken from the lung of a patient.
The following end points were used: • Toxicity was declared at dosages inducing ≧20% body weight loss or ≧10% drug death; • Antitumor efficacy was determined by calculating the ΔT/ΔC value in percent on day 28 post treatment initiation, according to the above mentioned formula; • Individual tumor volume changes from baseline were analyzed by a non-parametric two-way ANOVA-TYPE (with factors: group and repeated day from 3 to 28) followed by a post-hoc contrasts analysis, with Bonferroni-Holm adjustment for multiplicity, comparing all treated groups to the control group on day 28. […] The volume endpoint for T-C calculations was chosen to be 1600 mm^3.

[1] = 5.8 mg/kg i.v./q4dx3, volume endpoint 1600 mm^3
[2] = 9.3 mg/kg i.v./q4dx3, volume endpoint 1600 mm^3
[3] = 15 mg/kg i.v./q4dx3, volume endpoint 1600 mm^3
[4] = 24.2 mg/kg i.v./q4dx3, volume endpoint 1600 mm^3

## CC(=O)O[C@@]12CO[C@@H]1C[C@H](O)[C@@]1(C)C(=O)[C@H](O)C3=C(C)[C@@H](OC(=O)[C@H](O)[C@@H](NC(=O)OC(C)(C)C)c4ccccc4)C[C@@](O)([C@@H](OC(=O)c4ccccc4)[C@H]21)C3(C)C [Docetaxel, docetaxel]
5.8 mg/kg i.v./q4dx3
  #CR: 0/0/0
  #PR: 0/0/0
  #TFS: 0/0/0
  Drug Deaths Total: 0
  Weight Nadir %: −2%
  Weight Nadir Day: 3
5.8 mg/kg i.v./q4dx3, day 28
  Tumor Volume Data (Day 28) Median: 598 mm^3
  ΔT/ΔC %: 42.9%
[1]
  MTTE: 41 days
  T-C: 9 days
5.8 mg/kg q4d×3 IV, day 28
  ΔT/ΔC: 42.9%
5.8 mg/kg q4d×3 IV, volume endpoint 1600 mm^3
  tumor growth delay (T-C): 9 days
5.8 mg/kg, DAY 3
  tumor volume changes from baseline, Median +/− MAD: 22.5 +/− 22.5
5.8 mg/kg, DAY 8
  tumor volume changes from baseline, Median +/− MAD: 95 +/− 22.5
5.8 mg/kg, DAY 11
  tumor volume changes from baseline, Median +/− MAD: 117.5 +/− 45
5.8 mg/kg, DAY 14
  tumor volume changes from baseline, Median +/− MAD: 189 +/− 60.5
5.8 mg/kg, DAY 17
  tumor volume changes from baseline, Median +/− MAD: 242.5 +/− 110
5.8 mg/kg, DAY 21
  tumor volume changes from baseline, Median +/− MAD: 278.5 +/− 142
5.8 mg/kg, DAY 24
  tumor volume changes from baseline, Median +/− MAD: 435 +/− 159
5.8 mg/kg, DAY 28
  tumor volume changes from baseline, Median +/− MAD: 487 +/− 231.5
5.8 mg/kg, DAY 31
  tumor volume changes from baseline, Median +/− MAD: 598 +/− 204
5.8 mg/kg, DAY 35
  tumor volume changes from baseline, Median +/− MAD: 813 +/− 367
5.8 mg/kg, DAY 38
  tumor volume changes from baseline, Median +/− MAD: 960 +/− 388
5.8 mg/kg, DAY 42
  tumor volume changes from baseline, Median +/− MAD: 1032 +/− 326
5.8 mg/kg, DAY 46
  tumor volume changes from baseline, Median +/− MAD: 1340 +/− 384
9.3 mg/kg i.v./q4dx3
  #CR: 0
  #PR: 1
  #TFS: 0
  Drug Deaths Total: 0*
  Weight Nadir %: −3%
  Weight Nadir Day: 17
9.3 mg/kg i.v./q4dx3, day 28
  Tumor Volume Data (Day 28) Median: 442 mm^3
  ΔT/ΔC %: 27.4%
[2]
  MTTE: 49 days
  T-C: 17 days
9.3 mg/kg, DAY 3
  tumor volume changes from baseline, Median +/− MAD: 56.5 +/− 26.5
9.3 mg/kg, DAY 8
  tumor volume changes from baseline, Median +/− MAD: 85.5 +/− 27
9.3 mg/kg, DAY 11
  tumor volume changes from baseline, Median +/− MAD: 73 +/− 42.5
9.3 mg/kg, DAY 14
  tumor volume changes from baseline, Median +/− MAD: 85.5 +/− 34.5
9.3 mg/kg, DAY 17
  tumor volume changes from baseline, Median +/− MAD: 117.5 +/− 51.5
9.3 mg/kg, DAY 21
  tumor volume changes from baseline, Median +/− MAD: 140.5 +/− 52
9.3 mg/kg, DAY 24
  tumor volume changes from baseline, Median +/− MAD: 239 +/− 94.5
9.3 mg/kg, DAY 28
  tumor volume changes from baseline, Median +/− MAD: 311 +/− 75.5
9.3 mg/kg, DAY 31
  tumor volume changes from baseline, Median +/− MAD: 390 +/− 90.5
9.3 mg/kg, DAY 35
  tumor volume changes from baseline, Median +/− MAD: 545 +/− 52
9.3 mg/kg, DAY 38
  tumor volume changes from baseline, Median +/− MAD: 677 +/− 118
9.3 mg/kg, DAY 42
  tumor volume changes from baseline, Median +/− MAD: 827.5 +/− 293.5
9.3 mg/kg, DAY 46
  tumor volume changes from baseline, Median +/− MAD: 1187 +/− 347.5
15 mg/kg i.v./q4dx3
  #CR: 0/0/0
  #PR: 0/0/0
  #TFS: 0/0/0
  Drug Deaths Total: 0
  Weight Nadir %: −8%
  Weight Nadir Day: 17
15 mg/kg i.v./q4dx3, day 28
  Tumor Volume Data (Day 28) Median: 178 mm^3
  ΔT/ΔC %: 3.2%
[3]
  MTTE: >59 days
  T-C: >28 days
15 mg/kg q4d×3 IV
  numbers of PR: 0/10
15 mg/kg, DAY 3
  tumor volume changes from baseline, Median +/− MAD: 26 +/− 26
15 mg/kg, DAY 8
  tumor volume changes from baseline, Median +/− MAD: 26 +/− 26
15 mg/kg, DAY 11
  tumor volume changes from baseline, Median +/− MAD: 13 +/− 16.5
15 mg/kg, DAY 14
  tumor volume changes from baseline, Median +/− MAD: 13 +/− 16.5
15 mg/kg, DAY 17
  tumor volume changes from baseline, Median +/− MAD: 13 +/− 16.5
15 mg/kg, DAY 21
  tumor volume changes from baseline, Median +/− MAD: 0 +/− 19
15 mg/kg, DAY 24
  tumor volume changes from baseline, Median +/− MAD: 22.5 +/− 23.5
15 mg/kg, DAY 28
  tumor volume changes from baseline, Median +/− MAD: 36.5 +/− 35.5
15 mg/kg, DAY 31
  tumor volume changes from baseline, Median +/− MAD: 42.5 +/− 29.5
15 mg/kg, DAY 35
  tumor volume changes from baseline, Median +/− MAD: 61 +/− 61
15 mg/kg, DAY 38
  tumor volume changes from baseline, Median +/− MAD: 61 +/− 81
15 mg/kg, DAY 42
  tumor volume changes from baseline, Median +/− MAD: 107 +/− 90
15 mg/kg, DAY 46
  tumor volume changes from baseline, Median +/− MAD: 155 +/− 153
24.2 mg/kg i.v./q4dx3
  #CR: 0
  #PR: 1
  #TFS: 0
  Drug Deaths Total: 0
  Weight Nadir %: −13%
  Weight Nadir Day: 17
24.2 mg/kg i.v./q4dx3, day 28
  ΔT/ΔC %: 0%
[4]
  MTTE: >59 days
  T-C: >28 days
24.2 mg/kg q4d×3 IV
  numbers of PR: 1/10
24.2 mg/kg, DAY 3
  tumor volume changes from baseline, Median +/− MAD: 29.5 +/− 13.5
24.2 mg/kg, DAY 8
  tumor volume changes from baseline, Median +/− MAD: 22.5 +/− 22.5
24.2 mg/kg, DAY 11
  tumor volume changes from baseline, Median +/− MAD: 0 +/− 22
24.2 mg/kg, DAY 14
  tumor volume changes from baseline, Median +/− MAD: −9.5 +/− 35
24.2 mg/kg, DAY 17
  tumor volume changes from baseline, Median +/− MAD: −9.5 +/− 26
24.2 mg/kg, DAY 21
  tumor volume changes from baseline, Median +/− MAD: −9.5 +/− 26
24.2 mg/kg, DAY 24
  tumor volume changes from baseline, Median +/− MAD: 0 +/− 0
24.2 mg/kg, DAY 28
  tumor volume changes from baseline, Median +/− MAD: 0 +/− 9.5
24.2 mg/kg, DAY 31
  tumor volume changes from baseline, Median +/− MAD: 0 +/− 9.5
24.2 mg/kg, DAY 35
  tumor volume changes from baseline, Median +/− MAD: 0 +/− 9.5
24.2 mg/kg, DAY 38
  tumor volume changes from baseline, Median +/− MAD: 0 +/− 9.5
24.2 mg/kg, DAY 42
  tumor volume changes from baseline, Median +/− MAD: 0 +/− 9.5
24.2 mg/kg, DAY 46
  tumor volume changes from baseline, Median +/− MAD: 50.5 +/− 47.5
